pEC50: −log10 of the molar value.

The source of these data is BindingDB's records for doi:10.1016/j.bmc.2017.01.005 (University of New Mexico, 2017).

This assay has as its target T1, Nuclear factor erythroid 2-related factor 2 (Homo sapiens, UniProt Q16236).
T1 sequence (Q16236 whole entry): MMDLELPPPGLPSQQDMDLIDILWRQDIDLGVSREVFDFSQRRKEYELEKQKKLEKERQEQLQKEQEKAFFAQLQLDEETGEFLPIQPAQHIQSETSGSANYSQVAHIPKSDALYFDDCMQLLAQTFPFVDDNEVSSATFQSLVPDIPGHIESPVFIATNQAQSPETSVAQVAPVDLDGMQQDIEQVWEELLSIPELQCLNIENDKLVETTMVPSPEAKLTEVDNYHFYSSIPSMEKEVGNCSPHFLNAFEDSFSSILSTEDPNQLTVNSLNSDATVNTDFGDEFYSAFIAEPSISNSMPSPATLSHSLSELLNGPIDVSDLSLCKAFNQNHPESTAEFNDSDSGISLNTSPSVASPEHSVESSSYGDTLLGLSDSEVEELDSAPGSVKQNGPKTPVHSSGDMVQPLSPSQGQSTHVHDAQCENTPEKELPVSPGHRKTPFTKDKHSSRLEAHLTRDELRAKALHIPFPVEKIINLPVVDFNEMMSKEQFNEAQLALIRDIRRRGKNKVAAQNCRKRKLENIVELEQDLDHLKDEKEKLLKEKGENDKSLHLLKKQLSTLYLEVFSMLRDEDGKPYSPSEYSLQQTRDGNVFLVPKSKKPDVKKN
The assay can be described thus: Activation of Nrf2 (unknown origin) expressed in human HepG2 cells after 5 hrs by ARE-driven luciferase reporter gene assay. (In general: A reporter such as luciferase makes a cellular process visible.)
The pEC50 is −log10 of the EC50, conventionally taken in molar units. Lower therefore signals a high EC50. For the compound `COc1ccccc1/C=C/c1ccccc1`, the negative-log EC50 (pEC50) was 5.36. Take `Fc1ccc(/C=C/c2ccccc2)cc1`: the pEC50 was 4.91. For `COc1cccc(/C=C/c2ccccc2F)c1` the value was 5.42. For `Fc1ccccc1/C=C/c1ccc(Cl)cc1` the value was 5.80; for `COc1ccc(/C=C/c2ccc(F)c(F)c2)cc1`, less than 4.82; for `Fc1cccc(/C=C/c2ccc(F)cc2F)c1`, 6.35.

With `Fc1ccc(/C=C/c2ccc(F)c(F)c2)cc1`, the pEC50 is less than 4.82. For `Cc1ccc(/C=C/c2cccc(C(F)(F)F)c2)cc1` the value was 5.82. With `COc1cccc(/C=C/c2ccc(C(C)C)cc2)c1OC`, the pEC50 was 5.57. The figure for `Fc1ccc(/C=C/c2ccccc2F)cc1` is 5.44. For `Oc1ccc(/C=C/c2ccccc2F)cc1` the value was 4.94; for `Fc1cccc(/C=C/c2ccccc2)c1`, 5.51. For `COc1ccc(/C=C/c2cc(F)ccc2F)cc1` the value was 5.49; for `COc1ccc(/C=C/c2ccc(F)cc2)cc1`, 5.38; for `Fc1cccc(/C=C/c2ccccc2F)c1`, less than 4.82. On to `COc1ccc(/C=C/c2cccc(O)c2)cc1`, for which the negative logarithm of the EC50 (pEC50) was less than 4.82. In turn, `Fc1ccccc1/C=C/c1c(F)cccc1F` had a pEC50 of 5.85.

In turn, `COc1ccc(/C=C/c2ccc(O)c(OC)c2)cc1` gave a negative-log EC50 (pEC50) of 5.43.

`Fc1ccccc1/C=C/c1ccccc1` had a negative logarithm of the EC50 (pEC50) of 6.15. For `Cc1ccc(/C=C/c2ccc(F)cc2)cc1` the value was 5.89. On to `COc1ccccc1/C=C/c1ccccc1F`, for which the pEC50 was 5.51.

For the compound `COc1cccc(/C=C/c2ccc(F)cc2)c1`, the pEC50 is 5.22.

`COc1ccc(/C=C/c2ccc(F)cc2)cc1OC` had a pEC50 of 5.59. On to `COc1ccc(OC)c(/C=C/c2ccc(F)cc2)c1`, for which the pEC50 is 5.29. The figure for `Fc1cccc(F)c1/C=C/c1ccccc1` is 5.16.

For the compound `Cc1ccc(/C=C/c2ccc(F)c(F)c2)cc1`, the pEC50 was 5.59. The compound `Fc1ccccc1/C=C/c1ccccc1F` showed a negative-log EC50 (pEC50) of 5.37. The figure for `Fc1cccc(/C=C/c2cccc(F)c2)c1` is 6.00; for `Fc1ccc(/C=C/c2cccc(F)c2)cc1` it is 6.19; for `Fc1ccc(/C=C/c2ccccc2F)c(F)c1` it is 5.02. The figure for `Fc1ccc(/C=C/c2ccc(F)cc2F)cc1` is 6.05. Compound `Fc1ccc(/C=C/c2cc(F)ccc2F)cc1` had a pEC50 of 5.54. For `COc1cccc(/C=C/c2cc(OC)ccc2OC)c1` the value was less than 4.82; for `Cc1ccc(/C=C/c2cccc([N+](=O)[O-])c2)cc1`, 5.43.

In turn, `COc1cccc(/C=C/c2ccc(C(F)(F)F)cc2)c1OC` had a pEC50 of 5.66. For the compound `COc1cccc(/C=C/c2cccc(F)c2)c1`, the pEC50 is 5.64.

`COc1cccc(/C=C/c2ccc(C)cc2)c1OC`: the pEC50 is 5.96.

Take `COc1cccc(/C=C/c2cccc(F)c2)c1OC`: the negative logarithm of the EC50 (pEC50) is 5.72.

`COc1cccc(/C=C/c2ccc(F)cc2)c1OC` gave a pEC50 of 5.54. For `COc1cccc(/C=C/c2ccccc2)c1OC` the value was 5.33; for `Cc1ccc(/C=C/c2ccccc2F)cc1`, 5.85; for `Fc1ccc(/C=C/c2ccccc2F)cc1F`, less than 4.82.

The compound `Fc1ccc(F)c(/C=C/c2ccccc2F)c1` showed a pEC50 of 5.23. `Fc1cccc(/C=C/c2cc(F)ccc2F)c1` showed a pEC50 of 6.52. Compound `Cc1ccc(/C=C/c2ccc(F)cc2F)cc1` had a negative logarithm of the EC50 (pEC50) of 5.70. Compound `COc1cccc(/C=C/c2ccccc2OC)c1` showed a pEC50 of 5.36. The compound `O=[N+]([O-])c1cccc(/C=C/c2ccccc2)c1` showed a pEC50 of 5.52. In turn, `COc1ccc(OC)c(/C=C/c2ccc(OC)cc2OC)c1` gave a pEC50 of 6.10. The figure for `Cc1ccc(/C=C/c2cccc(F)c2)cc1` is 6.10; for `Fc1cccc(/C=C/c2ccc(F)c(F)c2)c1` it is 5.30. For `COc1ccc(/C=C/c2cccc([N+](=O)[O-])c2)cc1` the value was 5.48. The figure for `COc1ccc(/C=C/c2cccc(F)c2)cc1OC` [4-(3-fluorostyryl)-1,2-dimethoxybenzene] is 5.02; for `Oc1ccc(/C=C/c2cc(O)cc(O)c2)cc1` [5-[(E)-2-(4-hydroxyphenyl)ethenyl]benzene-1,3-diol] it is 5.27; for `COc1ccc(/C=C/c2ccc(OC)cc2OC)cc1` [(E)2'',4,4''-Trimethoxystilbene] it is 5.34. For the compound `COc1ccc(/C=C/c2ccccc2Cl)cc1` [US8980954, 6j], the negative logarithm of the EC50 (pEC50) is 5.51. The figure for `COc1ccc(/C=C/c2cccc(F)c2)cc1` [US8980954, 6n] is 5.05. In turn, `COc1ccc(/C=C/c2ccccc2F)cc1` [US8980954, 6p] showed a pEC50 of 5.27.
